Measurements reported in US20180194762A1 (Pharmacyclics LLC, priority 2017, published 2018).

Tests used:
Assay type in all cases: biochemical
Btk = molecular target: T1, Btk (Homo sapiens, UniProt Q06187); experiment: Btk in vitro inhibitory activity (one of Method A TR-FRET, Method B electrophoretic mobility shift, Method C radiometric filter binding); details: wild-type Btk; read-out: Btk-WT IC50
T1 construct: purified from insect cells as a full-length construct containing a N-terminal 6X-His tag; His6 (N); made in house; host or cells: insect cells (Method C)
Outline: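 Method A: TR-FRET with 0.5 nM Btk at [ATP]=Km, EDTA-quenched, 665/615 nm ratio; Ki(app) converted to IC50. Method B: 1 nM full-length His6 human BTK, 1 μM FAM peptide, pH 7.5, mobility-shift product/sum ratio, 12-point 4-parameter fit. Method C: radiometric filter binding, 8 nM His-tagged BTK, 0.2 mg/mL poly-Glu-Tyr.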

TEC = molecular target: T2, TEC (Homo sapiens, UniProt P42680); experiment: Inhibition of a panel of kinases (in vitro HotSpot kinase assay, 33P-ATP, 1 μM ATP); details: for IC50: HotSpot kinase assay, 1 μM ATP; for TEC/Btk: ratio of TEC IC50 to Btk IC50 (selectivity)
T2 sequence (P42680 1-631): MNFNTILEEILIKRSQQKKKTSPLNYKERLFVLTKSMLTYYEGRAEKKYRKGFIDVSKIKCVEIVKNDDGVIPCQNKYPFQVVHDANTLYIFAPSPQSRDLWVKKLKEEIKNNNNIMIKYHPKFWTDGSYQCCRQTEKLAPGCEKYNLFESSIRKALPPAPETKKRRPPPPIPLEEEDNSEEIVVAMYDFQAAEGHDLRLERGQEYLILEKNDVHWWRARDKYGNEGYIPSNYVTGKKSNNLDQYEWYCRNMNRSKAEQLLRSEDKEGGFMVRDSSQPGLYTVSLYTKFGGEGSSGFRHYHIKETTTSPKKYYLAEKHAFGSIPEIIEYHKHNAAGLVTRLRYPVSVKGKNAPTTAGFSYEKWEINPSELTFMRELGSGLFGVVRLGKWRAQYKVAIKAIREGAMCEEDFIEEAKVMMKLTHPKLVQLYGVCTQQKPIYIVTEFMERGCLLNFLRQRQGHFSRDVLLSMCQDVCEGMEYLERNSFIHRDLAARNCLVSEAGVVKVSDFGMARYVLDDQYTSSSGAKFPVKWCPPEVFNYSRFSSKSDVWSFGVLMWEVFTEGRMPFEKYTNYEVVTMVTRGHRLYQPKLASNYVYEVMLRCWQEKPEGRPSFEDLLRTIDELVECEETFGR
Outline: (§1)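 Degree of kinase inhibition is determined in vitro using isolated enzymes, a matched substrate and radiolabelled ATP (1 μM).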

panel of kinases = molecular target: T3, panel of kinases (Homo sapiens, UniProt P51813); experiment: Inhibition of a panel of kinases (in vitro HotSpot kinase assay, 33P-ATP, 1 μM ATP), other kinases; details: BMX wild-type, read-out: BMX-WT IC50
T3 sequence (P51813 1-675): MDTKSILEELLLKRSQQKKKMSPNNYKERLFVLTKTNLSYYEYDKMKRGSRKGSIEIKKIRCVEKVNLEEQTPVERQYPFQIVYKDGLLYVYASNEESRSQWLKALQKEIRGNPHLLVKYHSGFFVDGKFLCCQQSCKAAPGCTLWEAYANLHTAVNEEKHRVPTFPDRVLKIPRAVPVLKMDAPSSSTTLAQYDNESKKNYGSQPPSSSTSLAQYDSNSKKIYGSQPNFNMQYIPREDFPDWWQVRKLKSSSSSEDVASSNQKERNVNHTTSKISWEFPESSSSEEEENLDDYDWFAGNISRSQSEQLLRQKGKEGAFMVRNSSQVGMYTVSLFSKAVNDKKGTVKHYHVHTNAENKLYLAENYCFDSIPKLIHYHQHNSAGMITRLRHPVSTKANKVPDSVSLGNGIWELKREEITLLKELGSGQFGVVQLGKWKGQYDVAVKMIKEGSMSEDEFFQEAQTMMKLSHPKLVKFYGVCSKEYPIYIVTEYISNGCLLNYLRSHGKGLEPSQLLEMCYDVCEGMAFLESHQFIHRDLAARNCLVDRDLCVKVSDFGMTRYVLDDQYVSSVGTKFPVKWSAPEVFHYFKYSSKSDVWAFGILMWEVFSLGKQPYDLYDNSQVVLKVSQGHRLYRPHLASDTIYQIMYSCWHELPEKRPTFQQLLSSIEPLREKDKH
Outline: as §1

T1 sequence (Q06187 whole entry): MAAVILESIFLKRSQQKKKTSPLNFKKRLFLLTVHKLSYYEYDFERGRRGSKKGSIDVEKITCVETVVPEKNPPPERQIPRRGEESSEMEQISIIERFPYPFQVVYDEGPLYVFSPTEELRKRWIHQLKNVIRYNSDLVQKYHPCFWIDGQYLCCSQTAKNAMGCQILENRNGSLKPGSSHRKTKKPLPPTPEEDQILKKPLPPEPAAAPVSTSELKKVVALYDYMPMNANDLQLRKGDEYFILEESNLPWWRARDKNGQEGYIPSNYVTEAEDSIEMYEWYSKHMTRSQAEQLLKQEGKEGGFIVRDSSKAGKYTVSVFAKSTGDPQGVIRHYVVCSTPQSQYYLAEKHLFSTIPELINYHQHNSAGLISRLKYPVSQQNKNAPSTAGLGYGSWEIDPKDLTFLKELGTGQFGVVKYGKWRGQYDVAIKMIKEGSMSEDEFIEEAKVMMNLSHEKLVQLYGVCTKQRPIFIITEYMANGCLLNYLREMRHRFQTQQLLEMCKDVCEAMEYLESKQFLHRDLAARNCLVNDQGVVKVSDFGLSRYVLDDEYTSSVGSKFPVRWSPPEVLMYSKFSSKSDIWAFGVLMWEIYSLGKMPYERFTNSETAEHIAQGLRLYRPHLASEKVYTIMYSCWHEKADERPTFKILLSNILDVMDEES

Row | SMILES | IC50 (Btk) | IC50 (TEC) | TEC/Btk (TEC) | IC50 (panel of kinases)
1 | O=c1c2c(F)cc(C3CC3)cc2ccn1-c1cccc(-c2ccnc3[nH]nc(N[C@@H]4CCNC4)c23)c1CO [Compound 17, (R)-6-cyclopropyl-8-fluoro-2-(2-(hydroxymethyl)-3-(3-(pyrrolidin-3-ylamino)-1H-pyrazolo[3,4-b]pyridin-4-yl)phenyl)isoquinolin-1 (2H)-one] | 312 nM | 5920 nM | 19 | 6410 nM
2 | C=CC(=O)N1CC[C@@H](Nc2n[nH]c3nccc(-c4cccc(-n5ccc6cc(C7CC7)cc(F)c6c5=O)c4CO)c23)C1 [Compound 18, 6-cyclopropyl-8-fluoro-2-[2-(hydroxymethyl)-3-(3-{[(3R)-1-(prop-2-enoyl)pyrrolidin-3-yl]amino}-1H-pyrazolo[3,4-b]pyridin-4-yl)phenyl]-1,2-dihydroisoquinolin-1-one] | 1.69 nM | 40 nM | 23 | 73 nM
3 | CC(C)(C)CCC(=O)NCc1ccc(-c2ccnc3[nH]nc(N[C@H]4CC[C@H](O)CC4)c23)cc1F [Compound 19, N-{[2-fluoro-4-(3-{[(1r,4r)-4-hydroxycyclohexyl]amino}-1H-pyrazolo[3,4-b]pyridin-4-yl)phenyl]methyl}-4,4-dimethylpentanamide] | > 10000 nM | > 10000 nM | – | 7460 nM
4 | CCn1cc(C(=O)NCc2ccc(-c3ccnc4[nH]nc(N[C@H]5CC[C@H](O)CC5)c34)cc2F)cn1 [Compound 20, 1-ethyl-N-{[2-fluoro-4-(3-{[(1r,4r)-4-hydroxycyclohexyl]amino}-1H-pyrazolo[3,4-b]pyridin-4-yl)phenyl]methyl}-1H-pyrazole-4-carboxamide] | > 10000 nM | > 10000 nM | – | 5280 nM
5 | CC(C)(C)c1nc(C(=O)NCc2ccc(-c3ccnc4[nH]nc(N[C@H]5CC[C@H](O)CC5)c34)cc2F)no1 [Compound 21, 5-tert-butyl-N-{[2-fluoro-4-(3-{[(1r,4r)-4-hydroxycyclohexyl]amino}-1H-pyrazolo[3,4-b]pyridin-4-yl)phenyl]methyl}-1,2,4-oxadiazole-3-carboxamide] | 53.4 nM | 3170 nM | 59 | 4370 nM
6 | CC(C)(C)c1ccc(C(=O)NC2(c3ccc(-c4ccnc5[nH]nc(N[C@H]6CC[C@H](O)CC6)c45)cc3)CC2)cc1 [Compound 22, 4-tert-butyl-N-{1-[4-(3-{[(1r,4r)-4-hydroxycyclohexyl]amino}-1H-pyrazolo[3,4-b]pyridin-4-yl)phenyl]cyclopropyl}benzamide] | > 10000 nM | > 10000 nM | – | 6470 nM
7 | CC(C)(C)c1ccc(C(=O)NCc2ccc(-c3ccnc4[nH]nc(N[C@H]5CC[C@H](O)CC5)c34)cc2)cc1 [Compound 23, 4-tert-butyl-N-{[4-(3-{[(1r,4r)-4-hydroxycyclohexyl]amino}-1H-pyrazolo[3,4-b]pyridin-4-yl)phenyl]methyl}benzamide] | > 10000 nM | > 10000 nM | – | > 10000 nM
8 | CC#CC(=O)N1CC[C@@H](Nc2n[nH]c3nccc(-c4ccc(C5(NC(=O)c6noc(C(C)(C)C)n6)CC5)cc4)c23)C1 [Compound 28, (R)—N-(1-(4-(3-((1-(but-2-ynoyl)pyrrolidin-3-yl)amino)-1H-pyrazolo[3,4-b]pyridin-4-yl)phenyl)cyclopropyl)-5-(tert-butyl)-1,2,4-oxadiazole-3-carboxamide] | 0.575 nM | 200 nM | 347 | 71 nM
9 | CN(C)C/C=C/C(=O)N1CC[C@@H](Nc2n[nH]c3nccc(-c4ccc(C5(NC(=O)c6noc(C(C)(C)C)n6)CC5)cc4)c23)C1 [Compound 29, (R,E)-5-(tert-butyl)-N-(1-(4-(3-((1-(4-(dimethylamino)but-2-enoyl)pyrrolidin-3-yl)amino)-1H-pyrazolo[3,4-b]pyridin-4-yl)phenyl)cyclopropyl)-1,2,4-oxadiazole-3-carboxamide] | 11 nM | 964 nM | 88 | 595 nM
10 | CC1(C(=O)N2CC[C@@H](Nc3n[nH]c4nccc(-c5ccc(C6(NC(=O)c7noc(C(C)(C)C)n7)CC6)cc5)c34)C2)COC1 [Compound 30, (R)-5-(tert-butyl)-N-(1-(4-(3-((1-(3-methyloxetane-3-carbonyl)pyrrolidin-3-yl)amino)-1H-pyrazolo[3,4-b]pyridin-4-yl)phenyl)cyclopropyl)-1,2,4-oxadiazole-3-carboxamide] | 254 nM | – | 39 | 6750 nM
11 | O=C(NCc1ccc(-c2ccnc3[nH]nc(N[C@@H]4CCNC4)c23)cc1F)c1ccccc1 [Compound 31, (R)—N-(2-fluoro-4-(3-(pyrrolidin-3-ylamino)-1H-pyrazolo[3,4-b]pyridin-4-yl)benzyl)benzamide] | > 10000 nM | 6410 nM | – | 1710 nM
12 | Cc1ccc(C(=O)NCc2ccc(-c3ccnc4[nH]nc(N[C@@H]5CCNC5)c34)cc2F)cc1 [Compound 32, (R)—N-(2-fluoro-4-(3-(pyrrolidin-3-ylamino)-1H-pyrazolo[3,4-b]pyridin-4-yl)benzyl)-4-methylbenzamide] | 328 nM | 5440 nM | 17 | 1410 nM
13 | C=CC(=O)N1CC[C@@H](Nc2n[nH]c3nccc(-c4ccc(CNC(=O)c5ccccc5)c(F)c4)c23)C1 [Compound 33, (R)—N-(4-(3-((1-acryloylpyrrolidin-3-yl)amino)-1H-pyrazolo[3,4-b]pyridin-4-yl)-2-fluorobenzyl)benzamide] | 15 nM | 217 nM | 14 | 25 nM
14 | C=CC(=O)N1CC[C@@H](Nc2n[nH]c3nccc(-c4ccc(CNC(=O)c5ccc(C)cc5)c(F)c4)c23)C1 [Compound 34, (R)—N-(4-(3-((1-acryloylpyrrolidin-3-yl)amino)-1H-pyrazolo[3,4-b]pyridin-4-yl)-2-fluorobenzyl)-4-methylbenzamide] | 1.76 nM | 55 nM | 31 | 16 nM
15 | O=C(NCc1ccc(-c2ccnc3[nH]nc(N[C@@H]4CCNC4)c23)cc1F)c1ccc(C2CC2)cc1 [Compound 35, 4-cyclopropyl-N-{[2-fluoro-4-(3-{[(3R)-pyrrolidin-3-yl]amino}-1H-pyrazolo[3,4-b]pyridin-4-yl)phenyl]methyl}benzamide] | 505 nM | 7000 nM | 14 | 8480 nM
16 | CC(C)(C)c1ccc2c(c1)CCN(Cc1ccc(-c3ccnc4[nH]nc(N[C@@H]5CCNC5)c34)cc1F)C2=O [Compound 36, 6-tert-butyl-2-{[2-fluoro-4-(3-{[(3R)-pyrrolidin-3-yl]amino}-1H-pyrazolo[3,4-b]pyridin-4-yl)phenyl]methyl}-1,2,3,4-tetrahydroisoquinolin-1-one] | 433 nM | > 10000 nM | >100 | > 10000 nM
17 | CC(C)(C)c1ccc(C(=O)NCc2ccc(-c3ccnc4[nH]nc(N[C@H]5CCNC5)c34)cc2F)cc1 [Compound 37, 4-tert-butyl-N-{[2-fluoro-4-(3-{[(3S)-pyrrolidin-3-yl]amino}-1H-pyrazolo[3,4-b]pyridin-4-yl)phenyl]methyl}benzamide] | 53.9 nM | > 10000 nM | >100 | 8820 nM
